Where two headings read alike, the source gives them in different places.
Columns and labels:
[1] = polymersomes and lipids (liposomes), comparison; cited from earlier work
Melittin = Melittin (Apis mellifera, UniProt P01501); conditions: Melittin 63 μL, 300 μM into 2 mL suspension
[2] = tested on: human umbilical vein endothelial cells (HUVECs); experiment: Cell viability, CellTiter-Blue assay; format: cell-based; conditions: CellTiter-Blue, 1, 2 and 4 h, compared to control
Method: Since endothelial cells are the first point of contact for intravenous drug formulations, the toxicity of the dendrosomes was evaluated in vitro on human umbilical vein endothelial cells (HUVECs). HUVECs were cultured in EGM Endothelial Growth Media (LONZA) supplemented with bovine brain extract (BBE) with heparin, h-EGF, hydrocortisone, gentamicin, amphotericin B (GA-1000), and fetal bovine serum (FBS). Cells were maintained in plastic culture flasks at 37° C. in a humidified atmosphere containing 5% CO2 and were further subcultured when the flasks were 70% to 90% confluent. The passage number of the cells for the HUVECs in vitro studies was 5-8. The investigation of toxicity of dendrosomes and viability of the cells was assessed fluorometrically by determining the number of viable cells present in multiwell plates. Cell viability was determined using the indicator dye resazurin, which is reduced by viable cells to a highly fluorescent form resorufin according to Scheme S17. […] The CellTiter-Blue Cell Viability Assay was obtained from Promega.
HUVECs were plated at a density of 3,200 cells per well (10,000 cells/cm^2) in 96 well tissue culture plates and allowed to adhere overnight. Culture media was removed from the wells and replaced with 250 μL of either: 100% media, 94% media/6% PBS buffer, 87.5% media/12.5% PBS buffer, 75% media/25% PBS buffer, 100% PBS buffer, and various concentrations of sterile dendrosomes and polymersomes ranging from 0.25 mg to 0.0625 mg in the three concentrations of media/PBS, and maintained at 37° C. in a humidified atmosphere of 5% CO2. The dendrosomes and polymersomes were prepared by film the hydration method as described in section S5.1 and extruded 25 times through 100 nm polycarbonate membrane. Dendrosomes and polymersomes were sterilized by exposing them for […] min to UV irradiation. […] The fluorescence intensity at 590 nm emanating from the wells when excited at 560 nm was then determined using a TECAN Inifinite2000 plate reader.

[3] = Dynamic light scattering of dendrosomes formed by ethanol injection (size, polydispersity); format: physicochemical
Method: Dynamic light scattering measurements (DLS) were performed with a Malvern Instruments particle sizer (Zetasizer® Nano S, Malvern Instruments, UK).
Small unilamellar dendrosomes of <200 nm size were obtained by fast injection of 100 μL of ethanol (THF, acetone, dioxane, acetonitrile or DMSO for the solvent dependence studies) solution containing 10 mg of Janus-dendrimer dissolved in 1 mL of solvent into various volumes of milippore water (0.5 mL-5 mL) giving final Janus-dendrimer concentrations of 0.1-2 mg/mL. Dendrosomes obtained via injection method were used without further manipulation to study the influence of concentration, solvent, temperature and time on size and polydispersity by dynamic light scattering (DLS) as well as for the characterization of dendrosome morphologies via cryogenic transmission electron microscopy (cryo-TEM).
Dendrosomes were formed according to the general method discussed herein at final concentrations from 0.5-20 mg/mL. DLS measurements were carried out immediately following injection and repeated after 60 min. […] Monomodal distributions were obtained from 0.5-7 mg/mL and bimodal distributions from 10-20 mg/mL. […] At concentrations over […], multimodal size distributions and increased flocculation in time was observed.
Dendrosomes were formed according to the general method discussed herein at final concentrations of 0.5 mg/mL aqueous solution.

[4] = Micropipette aspiration of giant unilamellar dendrosomes (mechanical properties); format: physicochemical
Method: The elastic properties of dendrosome membranes were determined by micropipette aspiration following an analogous procedure described previously (Needham, Biophys. J. 58, 997-1009 (1990)). Giant unilamelar (˜[…] diameter) dendrosomes were prepared by Teflon film hydration as described herein and dispersed into iso-osmotic ultrapure water. Glass micropipettes with inner diameter from ˜3 μm to ˜10 μm were filled with iso-osmotic ultrapure water and connected to an aspiration station mounted on the side of a Zeiss inverted microscope, equipped with a manometer. The pipettes were used to manipulate the dendrosomes and to apply well-defined stress to the wall by inducing suction tension on their membranes.
The micropipette suction pressure is controlled in the range of microatmospheres and tenths of atmospheres (0.1 N/m^2 to 10000 N/m^2). The tension results in deformation and consequently provides direct measurements of the elastic moduli, which characterizes the membrane area expansion and bending, together with other parameter that characterize the tensile failure of the vesicle membrane according to the equations (1) and (2): Ka=Δτ/Δα (1) Es=Ka(αc)^2/2 (2) were Ka=elastic area expansion modulus; Δτ=fractional tension; τs=membrane tension at failure; Δα=fractional increase in membrane area; αc=critical areal strain-fractional increase in membrane area at failure, and Es=energy stored at failure Results are presented in the Table below.

[5] = Miscibility of Janus-dendrimers with phospholipids (microscopy, DSC); format: physicochemical; conditions: 1:1 ratio, film hydration
[6] = concentrations of 0.5-2 mg/mL, unimodal distributions

Chain of Melittin (P01501 44-69 limits assumed): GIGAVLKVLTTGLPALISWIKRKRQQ

## CCCCCCCCCCCCCC(=O)OC[C@H](COP(=O)([O-])OCC[N+](C)(C)C)OC(=O)CCCCCCCCCCCCC [DMPC]
[1]
  Ka (elastic area expansion modulus): 234 mN/m

## CCCCCCCC/C=C\CCCCCCCC(=O)O[C@H](COC(=O)CCCCCCCCCCCCCCCCC)COP(=O)([O-])OCC[N+](C)(C)C [SOPC, 1-Stearoyl-2-Oleoyl-Sn-Glycero-3-Phosphatidylcholine, reference compound]
Melittin
  CD signal after Melittin addition: showed CD signal

## (3,4)12G1-PE-(3,4,5)-3EO-G1-(OCH3)6 [Dendrosome 1]
[2]
  cell viability / toxicity: excellent biocompatibility

## (3,4)12G1-PE-BMPA-G2-(OH)8 [(3,4)12G1-PE-BMPA-(OH)8]
[3]; [6]
  PDI: 0.07-0.2
  sizes: 111-175 nm
[4]
  Critical αc (critical areal strain): 0.04
  Energy stored at failure: 0.42 mJ/m^2
  Ka (elastic area expansion modulus): 961 mN/m
  Lysis Tension τs: 20.4 mN/m

## (3,4,5)12G1-PE-(3,4,5)-3EO-G1-(OH)6
[2]
  cell viability / toxicity: excellent biocompatibility
[4]
  Critical αc (critical areal strain): 0.04
  Energy stored at failure: 0.27 mJ/m^2
  Ka (elastic area expansion modulus): 267.5 mN/m
  Lysis Tension τs: 12.7 mN/m

## (3,4,5)12G1-PE-BMPA-G2-(OH)8 [(3,4,5)12G1-PE-BMPA-(OH)8]
[4]
  Critical αc (critical areal strain): 0.06
  Energy stored at failure: 0.11 mJ/m^2
  Ka (elastic area expansion modulus): 42.44 mN/m
  Lysis Tension τs: 0.88 mN/m

## (3,5)12G1-PE-(3,4)-3EO-G1-(OH)4
[4]
  Critical αc (critical areal strain): 0.06
  Energy stored at failure: 0.73 mJ/m^2
  Ka (elastic area expansion modulus): 582.5 mN/m
  Lysis Tension τs: 15.11 mN/m

## (3,5)12G1-PE-(3,4,5)-3EO-G1-(OCH3)6 [Dendrosome 2]
[2]
  cell viability / toxicity: excellent biocompatibility

## (3,5)12G1-PE-BMPA-G2-(OH)8 [(3,5)12G1-PE-BMPA-(OH)8]
[5]
  miscibility with SOPC: confirmed by DSC
[3]; concentration 0.5 mg/mL
  Z-average size: 94 nm
  polydispersity: 0.04
[3]; concentration 10 mg/mL
  Z-average size: 330 nm
  polydispersity: 0.17
[3]; concentration of 20 mg/mL
  PDI: 0.4
  sizes: 1004 nm
[3]; concentrations of 0.5-10 mg/mL
  sizes: 94-330 nm
[4]
  Critical αc (critical areal strain): 0.03
  Energy stored at failure: 0.69 mJ/m^2
  Ka (elastic area expansion modulus): 976 mN/m
  Lysis Tension τs: 15.5 mN/m
Melittin
  CD signal after Melittin addition: showed CD signal

## DAPC
[1]
  Critical αc (critical areal strain): 0.04
  Ka (elastic area expansion modulus): 57 mN/m
  Lysis Tension τs: 2.3 mN/m
